Active and inactive are the calls of the source. The calls are words filed in the database; no cut-off is given here.

Assay [1] deals with K562. Description: Induction of apoptosis in human K562 cells assessed as early apoptotic cells at 2.56 uM incubated for 24 hrs by annexinV and propidium iodide staining based flow cytometry analysis (reference value: 1.17%). The format is functional. (Flow cytometry measures light scatter and fluorescence of single cells or particles in a stream.)
For assay [2], the system named is K562. Description: Induction of cell cycle arrest in human K562 cells assessed as accumulation of cells at G2/M phase at 1.28 uM measured after 24 hrs by PI staining based flow cytometry analysis (reference value: 25.62%). Format: functional.
Assay [3] relates to K562. The assay can be described thus: Induction of cell cycle arrest in human K562 cells assessed as accumulation of cells at G2/M phase at 2.56 uM measured after 24 hrs by PI staining based flow cytometry analysis (reference value: 29.09%). The format is functional.
For assay [4], the system named is K562. Description: Induction of autophagy in human K562 cells assessed as increase in beclin-1 level at 2.5 to 5 uM measured after 24 hrs by Western blotting analysis. Format: functional, cell-based. The conditions noted are these: dose 2.5-5 µM.
Assay [5] concerns K562. The assay can be described thus: Induction of cell cycle arrest in human K562 cells assessed as accumulation of cells at S phase at 1.25 uM measured after 24 hrs by PI staining based flow cytometry analysis (reference value: 20.42%). Format: functional.
Assay [6] has as its system K562. Description: Induction of cell cycle arrest in human K562 cells assessed as accumulation of cells at G0/G1 phase at 5 uM measured after 24 hrs by PI staining based flow cytometry analysis (reference value: 46.67%). Format: functional.
The test system of assay [7] is K562. The assay can be described thus: Induction of cell cycle arrest in human K562 cells assessed as accumulation of cells at S phase at 2.56 uM measured after 24 hrs by PI staining based flow cytometry analysis (reference value: 21.74%). Format: functional.
In assay [8] the test system is K562. Description: Induction of autophagy in human K562 cells assessed as increase in beclin-1 level at 1.28 to 2.56 uM measured after 24 hrs by Western blotting analysis. Format: functional, cell-based. The conditions noted are these: dose 1.28-2.56 µM. A general note: A western blot detects proteins with antibodies after separation by electrophoresis.
Assay [9] relates to K562. Description: Induction of cell cycle arrest in human K562 cells assessed as accumulation of cells at SubG1 phase at 2.5 uM measured after 24 hrs by PI staining based flow cytometry analysis (reference value: 3.43%). The format is functional.

As for `CC(C)(C)n1cc(-c2ccnc(NCCCNS(=O)(=O)c3ccc(Cl)cc3)c2)c(-c2cccc(O)c2)n1`, the Activity in the assay with K562 [1] came to 2.14%; in the assay with K562 [2], 58.95%.

On to `O=C1c2ccccc2-c2n[nH]c3cccc1c23`, for which the Activity in the assay with K562 [3] is given as 37.88%; in the assay on K562 [5], 19.52%; with K562 [6], 28.76%; with K562 [7], 21.55%; in the assay on K562 [9], 4.35%. The result with K562 [4] and with K562 [8] was Active.

Values taken from ChEMBL document CHEMBL5634117 (Eur J Med Chem, 2023).
